In ChEMBL document CHEMBL6092137, “Synergistic immune augmentation enabled by covalently conjugating TLR4 and NOD2 agonists” (Eur J Med Chem, 2024):
The source made the active and inactive calls. No cut-off for these calls is given here.

Columns and labels:
Mus musculus [1] = assay: Induction of innate immunity in BALB/c mouse assessed as fold increase in IL-6 level in serum at 22.53 ug, ip measured after 2 hrs by ELISA; type: functional; conditions: dose 22.53 µg
[2] = Immunostimulatory activity in C57BL/6 mouse BMDC cells assessed as TLR4 inhibitor mediated reduction in IL-6 level at 9.3 uM incubated for 20 hrs in presence of TAK242 by ELISA; type: functional; parameters: scale not given: the % may be the effect or the level left
[3] = Immunostimulatory activity in C57BL/6 mouse BMDC cells assessed as TLR4 inhibitor mediated reduction in IL-6 level at 9.3 uM incubated for 20 hrs in presence of GSK717 by ELISA; type: functional; parameters: scale not given: the % may be the effect or the level left
[4] = Immunostimulatory activity in C57BL/6 mouse BMDC cells assessed as TLR4/NOD2 inhibitor mediated reduction in IL-6 level at 9.3 uM incubated for 20 hrs in presence of TAK242/ GSK717 by ELISA; type: functional; parameters: scale not given: the % may be the effect or the level left
THP-1 = assay: Cytotoxicity against human THP-1 cells assessed as reduction in cell viability by MTT assay; type: toxicity, cell-based
[5] = Induction of mouse RAW264.7 cell maturation assessed as fold increase in CD86 positive cells incubated for 18 hrs by staining based flow cytometric analysis relative to combination of RC529 and Muramyl dipeptide; type: functional
[6] = Induction of mouse RAW264.7 cell maturation assessed as fold increase in CD80 positive cells incubated for 18 hrs by staining based flow cytometric analysis relative to combination of RC529 and Muramyl dipeptide; type: functional
[7] = Induction of mouse RAW264.7 cell maturation assessed as change in CD80 positive cells incubated for 18 hrs by staining based flow cytometric analysis relative to control; type: functional
[8] = Induction of mouse RAW264.7 cell maturation assessed as change in CD86 positive cells incubated for 18 hrs by staining based flow cytometric analysis relative to control; type: functional
[9] = Induction of mouse RAW264.7 cell maturation assessed as fold increase in CD80 and CD86 positive cells incubated for 18 hrs by staining based flow cytometric analysis relative to combination of RC529 and Muramyl dipeptide; type: functional
[10] = Induction of mouse BMDC cell maturation assessed as fold increase in CD80 positive cells incubated for 18 hrs by staining based flow cytometric analysis relative to combination of RC529 and Muramyl dipeptide; type: functional
[11] = Induction of mouse BMDC cell maturation assessed as fold increase in CD86 positive cells incubated for 18 hrs by staining based flow cytometric analysis relative to combination of RC529 and Muramyl dipeptide; type: functional
[12] = Induction of mouse BMDC cell maturation assessed as fold increase in CD80 and CD86 positive cells incubated for 18 hrs by staining based flow cytometric analysis relative to combination of RC529 and Muramyl dipeptide; type: functional
[13] = Induction of mouse BMDC cell maturation assessed as change in CD80 positive cells incubated for 18 hrs by staining based flow cytometric analysis relative to control; type: functional
[14] = Induction of mouse BMDC cell maturation assessed as change in CD86 positive cells incubated for 18 hrs by staining based flow cytometric analysis relative to control; type: functional
Mus musculus [15] = species on record: Mus musculus; assay: Activation of adaptive immune response in ovalbumin immunized mouse model assessed as increase in IgG titers incubated for 1 hrs and measured on 28 to 42 days; type: functional, organism-based
Mus musculus [16] = species on record: Mus musculus; assay: Activation of adaptive immune response in ovalbumin immunized mouse model assessed as fold increase in IgG titers incubated for 1 hrs and measured on day 42 relative to combination of RC529 and Muramyl dipeptide; type: functional
Mus musculus [17] = species on record: Mus musculus; assay: Activation of adaptive immune response in ovalbumin immunized mouse model assessed as increase in IgG1 titers incubated for 1 hrs and measured on day 42; type: functional, organism-based
Mus musculus [18] = species on record: Mus musculus; assay: Activation of adaptive immune response in ovalbumin immunized mouse model assessed as increase in IgG2a titers incubated for 1 hrs and measured on day 42; type: functional, organism-based
Mus musculus [19] = species on record: Mus musculus; assay: Activation of adaptive immune response in ovalbumin immunized mouse model assessed as increase in IgG2b titers incubated for 1 hrs and measured on day 42; type: functional, organism-based
T-cell [20] = assay: Immunostimulatory activity in mouse spleen T-lymphocytes assessed as fold increase in proportion of TNF-alpha and IFN-gamma double-positive secreting CD8+ cells and measured on day 42 by staining based flow cytometric analysis relative to combination of RC529 and muramyl dipeptide; type: functional; conditions: time 42 day
T-cell [21] = assay: Immunostimulatory activity in mouse spleen T-lymphocytes assessed as fold increase in proportion of TNF-alpha and IFN-gamma double-positive secreting CD4+ cells and measured on day 42 by staining based flow cytometric analysis RC529; type: functional; conditions: time 42 day
T-cell [22] = assay: Immunostimulatory activity in mouse spleen T-lymphocytes assessed as fold increase in proportion of TNF-alpha and IFN-gamma double-positive secreting CD4+ cells and measured on day 42 by staining based flow cytometric analysis relative to muramyl dipeptide; type: functional; conditions: time 42 day
[23] = Immunostimulatory activity in mouse spleen T-lymphocytes assessed as fold increase in proportion of TNF-alpha positive secreting CD4+ cells and measured on day 42 by staining based flow cytometric analysis relative to RC529 and muramyl dipeptide combination; type: functional, T-cell
T-cell [24] = assay: Immunostimulatory activity in mouse spleen T-lymphocytes assessed as fold increase in proportion of IFN-gamma positive secreting CD4+ cells and measured on day 42 by staining based flow cytometric analysis relative to RC529 and muramyl dipeptide combination; type: functional; conditions: time 42 day
[25] = Immunostimulatory activity in female BALB/c mouse spleen T-lymphocytes assessed as fold increase in proportion of Tcm in CD8+ cells and measured on day 42 by staining based flow cytometric analysis relative to combination of RC529 and Muramyl dipeptide; type: functional, T-cell; conditions: time 42 day
[26] = Immunostimulatory activity in female BALB/c mouse spleen T-lymphocytes assessed as fold increase in proportion of Tcm in CD4+ cells and measured on day 42 by staining based flow cytometric analysis relative to combination of RC529 and Muramyl dipeptide; type: functional, T-cell; conditions: time 42 day
[27] = Toxicity in immunized BALB/c mouse assessed as vascular congestion in heart measured on day 42 by H and E staining based analysis; type: tissue-based; conditions: in vivo, 1008 h, time 42 day
[28] = Toxicity in immunized BALB/c mouse assessed as vascular congestion in liver measured on day 42 by H and E staining based analysis; conditions: in vivo, 1008 h, time 42 day
[29] = Toxicity in immunized BALB/c mouse assessed as vascular congestion in spleen measured on day 42 by H and E staining based analysis; conditions: in vivo, 1008 h, time 42 day
[30] = Toxicity in immunized BALB/c mouse assessed as vascular congestion in lungs measured on day 42 by H and E staining based analysis; conditions: in vivo, 1008 h, time 42 day
[31] = Toxicity in immunized BALB/c mouse assessed as vascular congestion in kidneys measured on day 42 by H and E staining based analysis; conditions: in vivo, 1008 h, time 42 day
[32] = Toxicity in immunized BALB/c mouse assessed as vascular congestion in brain measured on day 42 by H and E staining based analysis; type: tissue-based; conditions: in vivo, 1008 h, time 42 day
[33] = Toxicity in immunized BALB/c mouse assessed as inflammatory cell infiltration in heart measured on day 42 by H and E staining based analysis; type: tissue-based; conditions: 1008 h, time 42 day
[34] = Toxicity in immunized BALB/c mouse assessed as inflammatory cell infiltration in liver measured on day 42 by H and E staining based analysis; conditions: 1008 h, time 42 day
[35] = Toxicity in immunized BALB/c mouse assessed as inflammatory cell infiltration in spleen measured on day 42 by H and E staining based analysis; conditions: 1008 h, time 42 day
[36] = Toxicity in immunized BALB/c mouse assessed as inflammatory cell infiltration in lungs measured on day 42 by H and E staining based analysis; conditions: 1008 h, time 42 day
[37] = Toxicity in immunized BALB/c mouse assessed as inflammatory cell infiltration in kidneys measured on day 42 by H and E staining based analysis; conditions: 1008 h, time 42 day
[38] = Toxicity in immunized BALB/c mouse assessed as inflammatory cell infiltration in brain measured on day 42 by H and E staining based analysis; type: tissue-based; conditions: 1008 h, time 42 day
[39] = Toxicity in immunized BALB/c mouse assessed as change in ALT level measured on day 42 […]; conditions: in vivo, 1008 h, time 42 day
[40] = Toxicity in immunized BALB/c mouse assessed as change in AST level measured on day 42 […]; conditions: in vivo, 1008 h, time 42 day

CCCCCCCCCCCCCC(=O)O[C@H](CCCCCCCCCCC)CC(=O)NCCO[C@@H]1O[C@H](CNC(=O)CCc2cn(CCO[C@@H]3O[C@H](CO)[C@@H](O)[C@H](O[C@H](C)C(=O)N[C@H](C)C(=O)N[C@H](CCC(=O)O)C(N)=O)[C@H]3NC(C)=O)nn2)[C@@H](OP(=O)(O)O)[C@H](OC(=O)C[C@@H](CCCCCCCCCCC)OC(=O)CCCCCCCCCCCCC)[C@H]1NC(=O)C[C@@H](CCCCCCCCCCC)OC(=O)CCCCCCCCCCCCC
fold change (FC) (Mus musculus [1]): 6.8
Activity [2]: 98%
Activity [3]: 58%
Activity [4]: 99%
Activity (THP-1): Non-toxic
fold change (FC) [5]: 2.2
fold change (FC) [6]: 1.4
Activity [7]: 40.4%
Activity [8]: 29.9%
fold change (FC) [9]: 2.1
fold change (FC) [10]: 1.3
fold change (FC) [11]: 1.5
fold change (FC) [12]: 1.7
Activity [13]: 31.5%
Activity [14]: 22.4%
Activity (Mus musculus [15]): Active
fold change (FC) (Mus musculus [16]): 2
Activity (Mus musculus [17]): Active
Activity (Mus musculus [18]): Active
Activity (Mus musculus [19]): Active
fold change (FC) (T-cell [20]): 3.3
fold change (FC) (T-cell [21]): 1.6
fold change (FC) (T-cell [22]): 1.5
fold change (FC) [23]: 1.3
fold change (FC) (T-cell [24]): 1.3
fold change (FC) [25]: 2.7
fold change (FC) [26]: 1.2
Activity [27]: Non-toxic
Activity [28]: Non-toxic
Activity [29]: Non-toxic
Activity [30]: Non-toxic
Activity [31]: Non-toxic
Activity [32]: Non-toxic
Activity [33]: Non-toxic
Activity [34]: Non-toxic
Activity [35]: Non-toxic
Activity [36]: Non-toxic
Activity [37]: Non-toxic
Activity [38]: Non-toxic
Activity [39]: Non-toxic
Activity [40]: Non-toxic
